From patent US10206399B2, “Herbicidal composition comprising uracil compound as active ingredient” (Dongbu Farm Hannong Co., Ltd., priority 2012, dated 2019)
Where two headings read alike, the source gives them in different places.

Assays:
Echinochloa crus = settings: for Echinochloa crus mortality, measured value: 20 days after treatment; for plant mortality, measured value: Echinochloa crus
Excerpt: (§1) X is % damage by uracil compound (a) of formula 1 at the rate of application of p kg/ha; Y is % damage by conventional herbicidal compound (b) at the rate of application of q kg/ha; and E is the expected damage caused by compounds (a) and (b) at a rate of application of p and q kg/ha.
(§2) The expected activity for a given combination of two herbicides can be calculated using equation 1 above.

Digitaria sanguinalis = settings: for Digitaria sanguinalis mortality, measured value: 20 days after treatment; for plant mortality, measured value: Digitaria sanguinalis
Excerpt: as §1, §2

Abutilon theophrasti = test: whole plant or invertebrate
Excerpt: as §1, §2

Aeschynomene indica = test: whole plant or invertebrate
Excerpt: as §1, §2

Xanthium spinosum = test: whole plant or invertebrate
Excerpt: as §1, §2

[1] = 480 h, read-out: Abutilon theophrasti mortality, measured value
[2] = 480 h, read-out: Aeschynomene indica mortality, measured value
[3] = 480 h, read-out: Xanthium spinosum mortality, measured value
[4] = read-out: plant mortality, measured value, 375 g/ha
[5] = read-out: plant mortality, measured value, 750 g/ha
[6] = read-out: plant mortality, measured value, 1500 g/ha
[7] = read-out: plant mortality, measured value, 150 g/ha
[8] = read-out: plant mortality, measured value, 300 g/ha
[9] = read-out: plant mortality, measured value, 600 g/ha
[10] = read-out: plant mortality, measured value, 175 g/ha
[11] = read-out: plant mortality, measured value, 350 g/ha
[12] = read-out: plant mortality, measured value, 700 g/ha

## CC(Oc1ccc(Oc2nc3ccc(Cl)cc3o2)cc1)C(=O)O (stereo not shown) [Fenoxaprop, reference compound]
Echinochloa crus; 25 g/ha
  Echinochloa crus mortality, measured value: 13%
Echinochloa crus; 50 g/ha
  Echinochloa crus mortality, measured value: 31%
Echinochloa crus; 100 g/ha
  Echinochloa crus mortality, measured value: 65%
Digitaria sanguinalis; 25 g/ha
  Digitaria sanguinalis mortality, measured value: 13%
Digitaria sanguinalis; 50 g/ha
  Digitaria sanguinalis mortality, measured value: 32%
Digitaria sanguinalis; 100 g/ha
  Digitaria sanguinalis mortality, measured value: 64%
Abutilon theophrasti; [1]
  mortality at 25 g/ha: 0%
  mortality at 50 g/ha: 0%
  mortality at 100 g/ha: 0%
Aeschynomene indica; [2]
  mortality at 25 g/ha: 0%
  mortality at 50 g/ha: 0%
  mortality at 100 g/ha: 0%
Xanthium spinosum; [3]
  mortality at 25 g/ha: 0%
  mortality at 50 g/ha: 0%
  mortality at 100 g/ha: 0%

## COc1cc(OC)nc(Oc2cccc(Oc3nc(OC)cc(OC)n3)c2C(=O)O)n1 [Bispyribac-sodium]
Echinochloa crus; 15 g/ha
  Data (measured value) Echinochloa crus: 23
Echinochloa crus; 30 g/ha
  Data (measured value) Echinochloa crus: 45
Digitaria sanguinalis; 15 g/ha
  Data (measured value) Digitaria sanguinalis: 20
Digitaria sanguinalis; 30 g/ha
  Data (measured value) Digitaria sanguinalis: 47
Abutilon theophrasti; read-out: Data (measured value) Abutilon theophrasti, 15 g/ha
  pest or weed control at 15 g/ha: 31%
Abutilon theophrasti; read-out: Data (measured value) Abutilon theophrasti, 30 g/ha
  pest or weed control at 30 g/ha: 62%
Aeschynomene indica; read-out: Data (measured value) Aeschynomene indica, 15 g/ha
  pest or weed control at 15 g/ha: 23%
Aeschynomene indica; read-out: Data (measured value) Aeschynomene indica, 30 g/ha
  pest or weed control at 30 g/ha: 49%
Xanthium spinosum; read-out: Data (measured value) Xanthium spinosum, 15 g/ha
  pest or weed control at 15 g/ha: 27%
Xanthium spinosum; read-out: Data (measured value) Xanthium spinosum, 30 g/ha
  pest or weed control at 30 g/ha: 58%

## CCC(=O)Nc1ccc(Cl)c(Cl)c1 [Propanil]
Echinochloa crus; 375 g/ha
  plant mortality, measured value: 11
Echinochloa crus; 750 g/ha
  plant mortality, measured value: 21
Echinochloa crus; 1500 g/ha
  plant mortality, measured value: 46
Digitaria sanguinalis; 375 g/ha
  plant mortality, measured value: 7
Digitaria sanguinalis; 750 g/ha
  plant mortality, measured value: 22
Digitaria sanguinalis; 1500 g/ha
  plant mortality, measured value: 45
Abutilon theophrasti; [4]
  pest or weed control at 375 g/ha: 10%
Abutilon theophrasti; [5]
  pest or weed control at 750 g/ha: 23%
Abutilon theophrasti; [6]
  pest or weed control at 1500 g/ha: 56%
Aeschynomene indica; [4]
  pest or weed control at 375 g/ha: 10%
Aeschynomene indica; [5]
  pest or weed control at 750 g/ha: 27%
Aeschynomene indica; [6]
  pest or weed control at 1500 g/ha: 56%
Xanthium spinosum; [4]
  pest or weed control at 375 g/ha: 10%
Xanthium spinosum; [5]
  pest or weed control at 750 g/ha: 24%
Xanthium spinosum; [6]
  pest or weed control at 1500 g/ha: 58%

## Nc1c(Cl)c(Cl)nc(C(=O)O)c1Cl [Picloram]
Echinochloa crus; 25 g/ha
  Data (measured value) Echinochloa crus: 0
Echinochloa crus; 50 g/ha
  Data (measured value) Echinochloa crus: 0
Echinochloa crus; 100 g/ha
  Data (measured value) Echinochloa crus: 0
Digitaria sanguinalis; 25 g/ha
  Data (measured value) Digitaria sanguinalis: 0
Digitaria sanguinalis; 50 g/ha
  Data (measured value) Digitaria sanguinalis: 0
Digitaria sanguinalis; 100 g/ha
  Data (measured value) Digitaria sanguinalis: 0
Abutilon theophrasti; read-out: Data (measured value) Abutilon theophrasti, 25 g/ha
  pest or weed control at 25 g/ha: 9%
Abutilon theophrasti; read-out: Data (measured value) Abutilon theophrasti, 50 g/ha
  pest or weed control at 50 g/ha: 28%
Abutilon theophrasti; read-out: Data (measured value) Abutilon theophrasti, 100 g/ha
  pest or weed control at 100 g/ha: 65%
Aeschynomene indica; read-out: Data (measured value) Aeschynomene indica, 25 g/ha
  pest or weed control at 25 g/ha: 9%
Aeschynomene indica; read-out: Data (measured value) Aeschynomene indica, 50 g/ha
  pest or weed control at 50 g/ha: 21%
Aeschynomene indica; read-out: Data (measured value) Aeschynomene indica, 100 g/ha
  pest or weed control at 100 g/ha: 52%
Xanthium spinosum; read-out: Data (measured value) Xanthium spinosum, 25 g/ha
  pest or weed control at 25 g/ha: 9%
Xanthium spinosum; read-out: Data (measured value) Xanthium spinosum, 50 g/ha
  pest or weed control at 50 g/ha: 26%
Xanthium spinosum; read-out: Data (measured value) Xanthium spinosum, 100 g/ha
  pest or weed control at 100 g/ha: 56%

## O=C(O)CNCP(=O)(O)O [Glyphosate, reference compound]
Echinochloa crus; 150 g/ha
  Echinochloa crus mortality, measured value: 12%
  plant mortality, measured value: 12
Echinochloa crus; 300 g/ha
  Echinochloa crus mortality, measured value: 23%
  plant mortality, measured value: 23
Echinochloa crus; 600 g/ha
  Echinochloa crus mortality, measured value: 48%
  plant mortality, measured value: 48
Digitaria sanguinalis; 150 g/ha
  Digitaria sanguinalis mortality, measured value: 8%
  plant mortality, measured value: 8
Digitaria sanguinalis; 300 g/ha
  Digitaria sanguinalis mortality, measured value: 18%
  plant mortality, measured value: 18
Digitaria sanguinalis; 600 g/ha
  Digitaria sanguinalis mortality, measured value: 46%
  plant mortality, measured value: 46
Abutilon theophrasti; [1]
  mortality at 150 g/ha: 8%
  mortality at 300 g/ha: 27%
  mortality at 600 g/ha: 59%
Abutilon theophrasti; [7]
  pest or weed control at 150 g/ha: 8%
Abutilon theophrasti; [8]
  pest or weed control at 300 g/ha: 27%
Abutilon theophrasti; [9]
  pest or weed control at 600 g/ha: 59%
Aeschynomene indica; [2]
  mortality at 150 g/ha: 9%
  mortality at 300 g/ha: 22%
  mortality at 600 g/ha: 47%
Aeschynomene indica; [7]
  pest or weed control at 150 g/ha: 9%
Aeschynomene indica; [8]
  pest or weed control at 300 g/ha: 22%
Aeschynomene indica; [9]
  pest or weed control at 600 g/ha: 47%
Xanthium spinosum; [3]
  mortality at 150 g/ha: 11%
  mortality at 300 g/ha: 30%
  mortality at 600 g/ha: 64%
Xanthium spinosum; [7]
  pest or weed control at 150 g/ha: 11%
Xanthium spinosum; [8]
  pest or weed control at 300 g/ha: 30%
Xanthium spinosum; [9]
  pest or weed control at 600 g/ha: 64%

## Nc1cnn(-c2ccccc2)c(=O)c1Cl [Chloridazon]
Echinochloa crus; 175 g/ha
  plant mortality, measured value: 13
Echinochloa crus; 350 g/ha
  plant mortality, measured value: 27
Echinochloa crus; 700 g/ha
  plant mortality, measured value: 54
Digitaria sanguinalis; 175 g/ha
  plant mortality, measured value: 14
Digitaria sanguinalis; 350 g/ha
  plant mortality, measured value: 28
Digitaria sanguinalis; 700 g/ha
  plant mortality, measured value: 63
Abutilon theophrasti; [10]
  pest or weed control at 175 g/ha: 14%
Abutilon theophrasti; [11]
  pest or weed control at 350 g/ha: 30%
Abutilon theophrasti; [12]
  pest or weed control at 700 g/ha: 64%
Aeschynomene indica; [10]
  pest or weed control at 175 g/ha: 11%
Aeschynomene indica; [11]
  pest or weed control at 350 g/ha: 29%
Aeschynomene indica; [12]
  pest or weed control at 700 g/ha: 57%
Xanthium spinosum; [10]
  pest or weed control at 175 g/ha: 7%
Xanthium spinosum; [11]
  pest or weed control at 350 g/ha: 22%
Xanthium spinosum; [12]
  pest or weed control at 700 g/ha: 46%
